Source: patent publication US6355799B1, “Substituted benzene compounds, process for their preparation, and herbicidal and defoliant compositions containing them” (ISK Americas Incorporated, priority 1997, dated 2002)

Columns and labels:
Format in all cases: in vivo
[1] = system: green foxtail (Setaria viridis, SETVI); assay: Pre-emerge test, greenhouse herbicide activity screening; settings: Setaria viridis, pre-emergence, 336 h, pre-emerge, phytotoxicity rating 0-100 at 14 days after application, read-out: Pre-emerge Herbicidal Activity SETVI; for pest or weed control at 63 g/ha: rate 63 g ai/ha; for pest or weed control at 250 g/ha: rate 250 g ai/ha
In short: (§1)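 Herbicidal damage is scored 0 (none) to 100 (complete plant death) two weeks after a simulated field spray. Rates span 15–1000 g ai/ha, delivered in acetone at 187 l/ha. For post-emergence treatments, plants have 2–3 leaves and the spray carries 0.25% v/v non-ionic surfactant.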

[2] = system: johnsongrass (Sorghum halepense, SORHA); assay: as above; settings: Sorghum halepense, pre-emergence, 336 h, pre-emerge, phytotoxicity rating 0-100 at 14 days after application, read-out: Pre-emerge Herbicidal Activity SORHA; for pest or weed control at 63 g/ha: rate 63 g ai/ha; for pest or weed control at 250 g/ha: rate 250 g ai/ha
In short: as §1

[3] = system: large crabgrass (Digitaria sanguinalis, DIGSA); assay: as above; settings: Digitaria sanguinalis, pre-emergence, 336 h, pre-emerge, phytotoxicity rating 0-100 at 14 days after application, read-out: Pre-emerge Herbicidal Activity DIGSA; for pest or weed control at 63 g/ha: rate 63 g ai/ha; for pest or weed control at 250 g/ha: rate 250 g ai/ha
In short: as §1

[4] = system: sicklepod (Cassia obtusifolia, CASOB); assay: as above; settings: Senna obtusifolia, pre-emergence, 336 h, pre-emerge, phytotoxicity rating 0-100 at 14 days after application, read-out: Pre-emerge Herbicidal Activity CASOB; for pest or weed control at 63 g/ha: rate 63 g ai/ha; for pest or weed control at 250 g/ha: rate 250 g ai/ha
In short: as §1

[5] = system: velvetleaf (Abutilon theophrasti, ABUTH); assay: as above; settings: Abutilon theophrasti, pre-emergence, 336 h, pre-emerge, phytotoxicity rating 0-100 at 14 days after application, read-out: Pre-emerge Herbicidal Activity ABUTH; for pest or weed control at 63 g/ha: rate 63 g ai/ha; for pest or weed control at 250 g/ha: rate 250 g ai/ha
In short: as §1

[6] = system: barnyardgrass (Echinochloa crus-galli, ECHCG); assay: Post-emerge test, greenhouse herbicide activity screening; settings: Echinochloa crus-galli, post-emergence, 336 h, post-emerge, phytotoxicity rating 0-100 at 14 days after application, read-out: Post-emerge Herbicidal Activity ECHCG; for pest or weed control at 63 g/ha: 63 g ai/ha; for pest or weed control at 250 g/ha: 250 g ai/ha
In short: (§2)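 Compounds in acetone were track-sprayed at 15–1000 g ai/ha: pre-emergence onto soil sown the previous day, then top-watered to incorporate and later bottom-watered; post-emergence onto 2–3 leaf plants with 0.25% v/v surfactant, bottom-watered only. Ratings on a 0–100 phytotoxicity scale were taken at day 14.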

[7] = system: green foxtail (Setaria viridis, SETVI); assay: as above; settings: Setaria viridis, post-emergence, 336 h, post-emerge, phytotoxicity rating 0-100 at 14 days after application, read-out: Post-emerge Herbicidal Activity SETVI; for pest or weed control at 63 g/ha: 63 g ai/ha; for pest or weed control at 250 g/ha: 250 g ai/ha
In short: as §2

[8] = system: ivyleaf morningglory (Ipomoea hederacea, IPOHE); assay: as above; settings: Ipomoea, post-emergence, 336 h, post-emerge, phytotoxicity rating 0-100 at 14 days after application, read-out: Post-emerge Herbicidal Activity IPOHE; for pest or weed control at 63 g/ha: 63 g ai/ha; for pest or weed control at 250 g/ha: 250 g ai/ha
In short: as §2

[9] = system: johnsongrass (Sorghum halepense, SORHA); assay: as above; settings: Sorghum halepense, post-emergence, 336 h, post-emerge, phytotoxicity rating 0-100 at 14 days after application, read-out: Post-emerge Herbicidal Activity SORHA; for pest or weed control at 63 g/ha: 63 g ai/ha; for pest or weed control at 250 g/ha: 250 g ai/ha
In short: as §2

[10] = system: lambsquarters (Chenopodium album, CHEAL); assay: as above; settings: Chenopodium album, post-emergence, 336 h, post-emerge, phytotoxicity rating 0-100 at 14 days after application, read-out: Post-emerge Herbicidal Activity CHEAL; for pest or weed control at 63 g/ha: 63 g ai/ha; for pest or weed control at 250 g/ha: 250 g ai/ha
In short: as §2

[11] = system: large crabgrass (Digitaria sanguinalis, DIGSA); assay: as above; settings: Digitaria sanguinalis, post-emergence, 336 h, post-emerge, phytotoxicity rating 0-100 at 14 days after application, read-out: Post-emerge Herbicidal Activity DIGSA; for pest or weed control at 63 g/ha: 63 g ai/ha; for pest or weed control at 250 g/ha: 250 g ai/ha
In short: as §2

[12] = system: redroot pigweed (Amaranthus retroflexus, AMARE); assay: as above; settings: Amaranthus retroflexus, post-emergence, 336 h, post-emerge, phytotoxicity rating 0-100 at 14 days after application, read-out: Post-emerge Herbicidal Activity AMARE; for pest or weed control at 63 g/ha: 63 g ai/ha; for pest or weed control at 250 g/ha: 250 g ai/ha
In short: as §2

[13] = system: sicklepod (Cassia obtusifolia, CASOB); assay: as above; settings: Senna obtusifolia, post-emergence, 336 h, post-emerge, phytotoxicity rating 0-100 at 14 days after application, read-out: Post-emerge Herbicidal Activity CASOB; for pest or weed control at 63 g/ha: 63 g ai/ha; for pest or weed control at 250 g/ha: 250 g ai/ha
In short: as §2

[14] = system: velvetleaf (Abutilon theophrasti, ABUTH); assay: as above; settings: Abutilon theophrasti, post-emergence, 336 h, post-emerge, phytotoxicity rating 0-100 at 14 days after application, read-out: Post-emerge Herbicidal Activity ABUTH; for pest or weed control at 63 g/ha: 63 g ai/ha; for pest or weed control at 250 g/ha: 250 g ai/ha
In short: as §2

SMILES	pest or weed control at 63 g/ha [1] [%]	pest or weed control at 250 g/ha [1] [%]	pest or weed control at 63 g/ha [2] [%]	pest or weed control at 250 g/ha [2] [%]	pest or weed control at 63 g/ha [3] [%]	pest or weed control at 250 g/ha [3] [%]	pest or weed control at 63 g/ha [4] [%]	pest or weed control at 250 g/ha [4] [%]	pest or weed control at 63 g/ha [5] [%]	pest or weed control at 250 g/ha [5] [%]	pest or weed control at 63 g/ha [6] [%]	pest or weed control at 250 g/ha [6] [%]	pest or weed control at 63 g/ha [7] [%]	pest or weed control at 250 g/ha [7] [%]	pest or weed control at 63 g/ha [8] [%]	pest or weed control at 250 g/ha [8] [%]	pest or weed control at 63 g/ha [9] [%]	pest or weed control at 250 g/ha [9] [%]	pest or weed control at 63 g/ha [10] [%]	pest or weed control at 250 g/ha [10] [%]	further results
CC(C)Oc1c(Cl)cc(F)c(-n2nnn(CCCF)c2=O)c1N [Compound 5-18, 1-(2-amino-4-chloro-6-fluoro-3-isopropyloxyphenyl)-4-(3fluoropropyl)-1,4-dihydro-5-oxo-5H-tetrazole]	95	90	40	30	30	20	0	10	40	70	0	0	0	0	0	0	0	0	10	10	pest or weed control at 63 g/ha [11]: 0%; pest or weed control at 250 g/ha [11]: 0%; pest or weed control at 63 g/ha [12]: 0%; pest or weed control at 250 g/ha [12]: 10%; pest or weed control at 63 g/ha [13]: 0%; pest or weed control at 250 g/ha [13]: 0%; pest or weed control at 63 g/ha [14]: 70%; pest or weed control at 250 g/ha [14]: 70%
Cc1nn(-c2c(Cl)cc(Cl)c(N)c2N)c(=O)n1C(F)F [Compound 6-20]	0	0	0	0	0	0	0	0	0	0	0	0	0	0	0	40	0	0	0	60	pest or weed control at 63 g/ha [11]: 0%; pest or weed control at 250 g/ha [11]: 0%; pest or weed control at 63 g/ha [12]: 0%; pest or weed control at 250 g/ha [12]: 60%; pest or weed control at 63 g/ha [13]: 0%; pest or weed control at 250 g/ha [13]: 0%; pest or weed control at 63 g/ha [14]: 0%; pest or weed control at 250 g/ha [14]: 50%
Cc1nn(-c2c(N)cc(Cl)cc2F)c(=O)n1C(F)F [Compound 6-22]	10	50	0	10	0	20	0	60	20	100	0	0	0	0	20	70	0	0	50	70	pest or weed control at 63 g/ha [11]: 0%; pest or weed control at 250 g/ha [11]: 0%; pest or weed control at 63 g/ha [12]: 70%; pest or weed control at 250 g/ha [12]: 100%; pest or weed control at 63 g/ha [13]: 0%; pest or weed control at 250 g/ha [13]: 0%; pest or weed control at 63 g/ha [14]: 60%; pest or weed control at 250 g/ha [14]: 80%
